pEC50: −log10 of the molar value.
Biological target: Tumor necrosis factor receptor superfamily member 10B (Homo sapiens, UniProt O14763)
Sequence (O14763 whole entry): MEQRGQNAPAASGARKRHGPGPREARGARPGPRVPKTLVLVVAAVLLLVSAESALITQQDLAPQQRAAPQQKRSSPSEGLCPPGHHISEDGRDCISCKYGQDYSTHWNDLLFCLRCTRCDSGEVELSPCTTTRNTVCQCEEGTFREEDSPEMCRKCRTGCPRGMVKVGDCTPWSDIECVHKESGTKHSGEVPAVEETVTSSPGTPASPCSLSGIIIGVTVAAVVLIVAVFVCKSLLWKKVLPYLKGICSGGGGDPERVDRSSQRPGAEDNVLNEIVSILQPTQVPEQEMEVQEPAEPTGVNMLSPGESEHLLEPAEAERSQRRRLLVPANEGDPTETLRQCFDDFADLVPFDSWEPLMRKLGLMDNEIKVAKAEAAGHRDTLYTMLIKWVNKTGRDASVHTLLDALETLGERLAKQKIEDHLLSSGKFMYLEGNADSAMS

Row | Compound | pEC50
1 | COc1ccc(C(C)N=Nc2nncc3ccccc23)cc1 (stereo unspecified) [N-[(E)-1-(4-methoxyphenyl)ethylideneamino]-1-phthalazinamine] | < 4.90
2 | O=c1[nH]c(N=NCc2ccc3c(c2)OCO3)nc2ccccc12 [MLS000700888] | 4.96
3 | O=c1c2ccccc2nc2c3ccccc3cnn12 | < 4.90
4 | COc1ccc(CN=Nc2nc3ccccc3c(=O)n2-c2ccccc2)cc1OC [SMR000174011] | 5.07
5 | Cc1cc(N=NCc2ccccc2)nc(NCc2ccccc2)n1 [6-methyl-N2-(phenylmethyl)-N4-[(E)-(phenylmethylidene)amino]pyrimidine-2,4-diamine] | < 4.90
6 | CCOC(=O)c1ccc(N=CCC(=O)c2ccco2)cc1 [ethyl 4-[[(E)-3-(furan-2-yl)-3-oxoprop-1-enyl]amino]benzoate] | < 4.90
7 | COc1cccc(N=CCC(=O)c2ccc(Cl)cc2)c1 [(E)-1-(4-chlorophenyl)-3-(3-methoxyanilino)-2-propen-1-one] | 4.99
8 | CN(C)c1ccc(N=CCC(=O)c2ccco2)cc1 | 5.12
9 | Cc1ccc(N=CC(C(=O)c2cccs2)C(=O)C(F)(F)F)cc1 (stereo unspecified) | 5.73
10 | CCOC(=O)C(c1nc2ccccc2[nH]1)n1c(-c2cccnc2)nc2ccccc21 (stereo unspecified) [2-(1,3-dihydrobenzimidazol-2-ylidene)-2-[2-(3-pyridinyl)-1-benzimidazolyl]acetic acid ethyl ester] | 4.98
11 | O=C(Cc1ccc2ccccc2n1)c1ccc(O)cc1O [(2Z)-1-(2,4-dihydroxyphenyl)-2-(1H-quinolin-2-ylidene)ethanone] | < 4.90

— BindingDB's records for doi:10.7270/Q2P55M4P (Burnham Center For Chemical Genomics, 2013)
